Literature values, collected in patent US8637551B2, “2-(1,2-benzisoxazol-3-yl)benzylamine derivatives” (Merck Sharp & Dohme B.V., priority 2009, dated 2014).

Columns and labels:
[1] = tested on: rat (Chung) model of neuropathic pain; conditions: for anti-allodynic effects in the Chung model: clinically used reference drugs
[2] = tested on: A-beta and A-delta fibres; conditions: Lee et al 2005
[3] = tested on: rat CFA model of inflammatory pain
[4] = tested on: rat, mild thermal injury model
Brennan model = conditions: local administration to the sciatic nerve 4 h after surgery; Dalle & Eisenach 2005
[5] = tested on: nerve injured myelinated DRG; conditions: Yagi et al, 2000

Compound: CN1CC[C@]23c4c5ccc(O)c4O[C@H]2[C@@H](O)C=C[C@H]3[C@H]1C5 [morphine]
- anti-allodynic effects in the Chung model [1]: anti-allodynic effects

Compound: NCC1(CC(=O)O)CCCCC1 [gabapentin]
- anti-allodynic effects in the Chung model [1]: anti-allodynic effects

Compound: CNCC[C@H](Oc1cccc2ccccc12)c1cccs1 [duloxetine]
- anti-allodynic effects in the Chung model [1]: anti-allodynic effects

Compound: CCN(c1ccccc1)c1cc(=NC)n(C)c(C)n1.Cl [ZD 7288]
- reversal of mechanical allodynia ([1]; intraperitoneal, Chung/von Frey, Chaplan et al 2003): dose-dependently reverses mechanical allodynia
- firing frequency of ectopic discharges [2]: reduced the firing frequency of ectopic discharges
- allodynia [3]: suppresses allodynia
- spontaneous pain [4]: blocks spontaneous pain
- mechanical allodynia (Brennan model): attenuates mechanical allodynia
- spontaneous activity [5]: reduces spontaneous activity
